One test deals with WM3928 cells. Put plainly: WM3928 Cell Proliferation Assay (1). The format is cell-based. A digest of the protocol:
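IC50 was derived from resazurin fluorescence (ex 540, em 600 nm) after a 6–7 h dye incubation. Before that, cells had 67–72 h of compound exposure at 37 °C, 5% CO2.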

The next test concerns H2405 cells. As to the kind of experiment: H2405 Cell Proliferation Assay (1). To be noted: Homo sapiens, NCI-H2405. The format is cell-based. An outline of the steps: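 Viability was read by resazurin reduction (ex 540 nm, em 600 nm; 5-6 h with 40 μL of 440 μM stock) after 67-72 h compound exposure at 37 °C.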
The target in test [1] is B-Raf (V600E) (SEQ. ID NO: 4) kinase (Homo sapiens (Human), UniProt P15056, V600E). As to the kind of experiment: Biochemical Assay for B-Raf (V600E) (1). To be noted: Table J, BRAF V600E, assay version (1); read-out: BRAF VE (1) IC50. An outline of the steps: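 Coupled pyruvate kinase/lactate dehydrogenase assay: 0.03 nM B-Raf V600E, 30.1 nM MEK, 1 mM ATP, pH 7.5 Tris/MgCl2 buffer, 1% DMSO. NADH oxidation followed at 340 nm for 6 h at 30 °C; rate from 3–4 h converted to percent inhibition, IC50 by four-parameter fit.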
Sequence of B-Raf (V600E) (SEQ. ID NO: 4) kinase (P15056 416-766 V600E): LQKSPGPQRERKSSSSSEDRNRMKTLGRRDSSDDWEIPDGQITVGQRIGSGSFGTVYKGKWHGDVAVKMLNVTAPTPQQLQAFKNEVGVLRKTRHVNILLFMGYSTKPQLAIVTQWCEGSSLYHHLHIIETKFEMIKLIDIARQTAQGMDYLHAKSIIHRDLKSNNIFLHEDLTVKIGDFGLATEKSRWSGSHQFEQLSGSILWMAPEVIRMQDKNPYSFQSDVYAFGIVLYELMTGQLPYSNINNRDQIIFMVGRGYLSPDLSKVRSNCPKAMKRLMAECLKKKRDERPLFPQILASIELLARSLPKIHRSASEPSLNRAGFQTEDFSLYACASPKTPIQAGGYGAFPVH

Test [2] addresses B-Raf kinase (SEQ. ID NO: 2) (Homo sapiens (Human), UniProt P15056). Put plainly: Biochemical Assay for B-Raf (1). To be noted: Table J, assay version (1); read-out: BRAF (1) IC50. An outline of the steps: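 Continuous PK/LDH-coupled NADH oxidation assay, A340 read for 6 h at 30° C., with 0.13 nM B-Raf, 30.1 nM MEK substrate and 1 mM ATP in Tris pH 7.5, MgCl2, DTT, detergents, 1% DMSO. Rate taken from 4–5 h window; percent inhibition vs no-compound and known-inhibitor controls; four-parameter fit gives IC50.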

The IC50 is the midpoint of a concentration-inhibition curve.

A value given as a limit tells only on which side of the number the result lay.

Sequence of B-Raf kinase (SEQ. ID NO: 2) (P15056 416-766): as the sequence (P15056 416-766 V600E) above, with E185V counted along it

On to `Cc1ccc(NC(=O)c2cnnc(C3CC3)c2)cc1-c1ccnc(-c2ccnc(NC(=O)C3CC3)c2)n1` [Example 250], for which the IC50 with WM3928 cells was 100 to 500 nM; in the test with H2405 cells, 100 to 500 nM; in test [1], no more than 100 nM; in test [2], no more than 100 nM.

With `Cc1ncc(NC(=O)c2ccnc(C(C)(C)C#N)c2)cc1-c1ccnc(-c2ccnc(NC(=O)C3CC3)c2)c1` [Example 251], the IC50 in the test with WM3928 cells was no more than 100 nM; in the test on H2405 cells, 100 to 500 nM; in test [1] it was no more than 100 nM; in test [2] it was no more than 100 nM.

`Cc1ncc(NC(=O)c2ccnc(C3CC3)c2)cc1-c1ccnc(-c2ccnc(NC(=O)C3CC3)c2)c1` [Example 253]: the IC50 was no more than 100 nM with WM3928 cells, 100 to 500 nM in the test on H2405 cells, no more than 100 nM in test [1] and no more than 100 nM in test [2].

As for `Cc1ncc(NC(=O)c2cnnc(C3CC3)c2)cc1-c1ccnc(-c2ccnc(NC(=O)C3CC3)c2)c1` [Example 254], the IC50 is 1000 to 10000 nM with WM3928 cells, 1000 to 10000 nM in the test with H2405 cells, no more than 100 nM in test [1] and no more than 100 nM in test [2].

As for `Cc1ccc(NC(=O)c2ccnc(C3CC3)c2)cc1-c1cccc(-c2cc(NC(=O)C3CC3)ncn2)c1` [Example 255], the IC50 in the test with WM3928 cells is no more than 100 nM; with H2405 cells, 100 to 500 nM; in test [1], no more than 100 nM; in test [2], no more than 100 nM.

For the compound `Cc1ncc(NC(=O)c2ccnc(C3CC3)c2)cc1-c1cnc(C)c(-c2ccnc(NC(=O)C3CC3)c2)c1` [Example 256], the IC50 with WM3928 cells was 500 to 1000 nM; in the test on H2405 cells, 100 to 500 nM; in test [1] it was no more than 100 nM; in test [2], no more than 100 nM.

Consider `CNC(=O)c1cc(-c2cc(-c3cc(NC(=O)c4ccnc(C(C)(C)OC)c4)ccc3C)ccn2)ccn1` [Example 264], for which the IC50 is no more than 100 nM in the test with WM3928 cells, 100 to 500 nM in the test on H2405 cells, no more than 100 nM in test [1] and 100 to 500 nM in test [2].

`CNC(=O)c1cc(-c2cc(-c3cc(NC(=O)c4ccnc(C5(C#N)CC5)c4)ccc3C)ccn2)ccn1` [Example 265]: the IC50 (with WM3928 cells; in the test with H2405 cells; in test [1]; in test [2]) was no more than 100 nM in each case.

As for `Cc1ccc(NC(=O)c2ccnc(C(C)(C)C#N)c2)cc1-c1cccc(-c2cc(N)ncn2)c1` [Example 267], the IC50 was 100 to 500 nM in the test with WM3928 cells, 500 to 1000 nM in the test on H2405 cells, no more than 100 nM in test [1] and no more than 100 nM in test [2].

For `Cc1ncc(NC(=O)c2ccnc(C3CC3)c2)cc1-c1cccc(-c2ccnc(NC(=O)C3CC3)c2)n1` [Example 270], the IC50 is 100 to 500 nM with WM3928 cells, 100 to 500 nM in the test with H2405 cells, no more than 100 nM in test [1] and no more than 100 nM in test [2].

`Cc1cc(F)c(NC(=O)c2ccnc(C(F)(F)F)c2)cc1-c1cncc(-c2ccnc(NC(=O)C3CC3)c2)n1` [Example 271]: the IC50 with WM3928 cells was no more than 100 nM; in the test with H2405 cells, 100 to 500 nM; in test [1] it was no more than 100 nM; in test [2] it was no more than 100 nM.

For `Cc1cc(C(=O)Nc2cnc(C)c(-c3ccnc(-c4ccnc(NC(=O)C5CC5)c4)n3)c2)ccn1` [Example 273], the IC50 in the test with WM3928 cells is 1000 to 10000 nM; in the test with H2405 cells, 1000 to 10000 nM; in test [1], no more than 100 nM; in test [2] it was 100 to 500 nM.

Turning to `COC(C)(C)c1cc(C(=O)Nc2cnc(C)c(-c3cccc(-c4cc(NC(=O)C5CC5)ncn4)c3)c2)ccn1` [Example 274], the IC50 (in the test with WM3928 cells; in the test with H2405 cells; in test [1]; in test [2]) was no more than 100 nM each time.

Turning to `Cc1ncc(NC(=O)c2ccnc(C3CC3)c2)cc1-c1ccnc(-c2ccnc(NC(=O)C3CC3)c2)n1` [Example 277], the IC50 in the test on WM3928 cells is 100 to 500 nM; in the test with H2405 cells, 100 to 500 nM; in test [1], no more than 100 nM; in test [2], no more than 100 nM.

On to `Cc1ncc(NC(=O)c2cnnc(C3CC3)c2)cc1-c1ccnc(-c2ccnc(NC(=O)C3CC3)c2)n1` [Example 278], for which the IC50 was 1000 to 10000 nM in the test with WM3928 cells, 1000 to 10000 nM in the test with H2405 cells, no more than 100 nM in test [1] and no more than 100 nM in test [2].

In the case of `Cc1ncc(NC(=O)c2cnn(C(C)(C)C)c2)cc1-c1cccc(-c2cc(NC(=O)C3CC3)ncn2)c1` [Example 279], the IC50 is no more than 100 nM in the test on WM3928 cells, 100 to 500 nM with H2405 cells, no more than 100 nM in test [1] and no more than 100 nM in test [2].

The values are drawn from patent publication US12319655B2, “RAF kinase inhibitors and methods of use thereof” (Deciphera Pharmaceuticals, LLC, priority 2021, dated 2025).
